According to ChEMBL document CHEMBL1156476, “Inhibition of mammalian target of rapamycin signaling by 2-(morpholin-1-yl)pyrimido[2,1-alpha]isoquinolin-4-one” (J Biol Chem, 2007):
Calls of active or inactive are those of the source. The rule behind the calls is not given here.

Key:
[1] = molecular target: T1, Serine/threonine-protein kinase mTOR (Homo sapiens, UniProt P42345); assay: Inhibition of mTOR
[2] = molecular target: T1, Serine/threonine-protein kinase mTOR; assay: Inhibition of PDGF-activated mTOR signaling in rat-1 fibroblasts assessed as Akt Ser473 site phosphorylation by Western blot
[3] = molecular target: T1, Serine/threonine-protein kinase mTOR; assay: Inhibition of PDGF-activated mTOR signaling in rat-1 fibroblasts assessed as S6K1 Thr389 site phosphorylation by Western blot
[4] = molecular target: DNA-dependent protein kinase catalytic subunit (Homo sapiens, UniProt P78527); assay: Inhibition of DNA-PK
[5] = molecular target: Casein kinase II subunit alpha (Homo sapiens) (UniProt P68400); assay: Inhibition of CSNK2A1 at 5 uM
[6] = molecular target: PI3-kinase p110-alpha/p85-alpha (Homo sapiens, UniProt P42336); assay: Inhibition of p110alpha/p85-alpha PI3K; assay type: protein-complex assay
[7] = molecular target: T1, Serine/threonine-protein kinase mTOR; assay: Inhibition of mTOR kinase activity in epitope-tagged AU1 immunoprecipitates expressed in human 293F cells at 5 uM by autoradiography; assay type: cell-based
[8] = molecular target: T1, Serine/threonine-protein kinase mTOR; assay: Inhibition of mTOR kinase activity in raptor immunoprecipitates expressed in human 293F cells at 10 uM by autoradiography; assay type: cell-based
[9] = molecular target: Phosphatidylinositol 4,5-bisphosphate 3-kinase catalytic subunit alpha isoform (Homo sapiens) (UniProt P42336); assay: Inhibition of p110-alpha PI3K assessed as p85alpha autophosphorylation at 25 uM by autoradiography
[10] = molecular target: Tyrosine-protein kinase ABL1 (Homo sapiens) (UniProt P00519); assay: Inhibition of ABL1 at 5 uM
[11] = molecular target: RAC-alpha serine/threonine-protein kinase (Homo sapiens) (UniProt P31749); assay: Inhibition of AKT1 at 5 uM
[12] = molecular target: Tyrosine-protein kinase BTK (Homo sapiens) (UniProt Q06187); assay: Inhibition of BTK at 5 uM
[13] = molecular target: Cyclin-dependent kinase 1/cyclin B1 (Homo sapiens) (UniProt P06493+P14635); assay: Inhibition of CDK1/Cyclin B at 5 uM; assay type: protein-complex assay
[14] = molecular target: Serine/threonine-protein kinase Chk1 (Homo sapiens) (UniProt O14757); assay: Inhibition of CHEK1 at 5 uM
[15] = molecular target: Casein kinase I isoform gamma-2 (Homo sapiens) (UniProt P78368); assay: Inhibition of CSNK1G2 at 5 uM
[16] = molecular target: Dual specificity tyrosine-phosphorylation-regulated kinase 3 (Homo sapiens) (UniProt O43781); assay: Inhibition of DYRK3 at 5 uM
[17] = molecular target: Epidermal growth factor receptor (Homo sapiens) (UniProt P00533); assay: Inhibition of EGFR at 5 uM
[18] = molecular target: Receptor-type tyrosine-protein kinase FLT3 (Homo sapiens) (UniProt P36888); assay: Inhibition of FLT3 at 5 uM
[19] = molecular target: Glycogen synthase kinase-3 beta (Homo sapiens) (UniProt P49841); assay: Inhibition of GSK3B at 5 uM
[20] = molecular target: Insulin-like growth factor 1 receptor (Homo sapiens) (UniProt P08069); assay: Inhibition of IGF1R at 5 uM
[21] = molecular target: Insulin receptor (Homo sapiens) (UniProt P06213); assay: Inhibition of INSR at 5 uM
[22] = molecular target: Interleukin-1 receptor-associated kinase 4 (Homo sapiens) (UniProt Q9NWZ3); assay: Inhibition of IRAK4 at 5 uM
[23] = molecular target: Tyrosine-protein kinase JAK3 (Homo sapiens) (UniProt P52333); assay: Inhibition of JAK3 at 5 uM
[24] = molecular target: Vascular endothelial growth factor receptor 2 (Homo sapiens) (UniProt P35968); assay: Inhibition of KDR at 5 uM
[25] = molecular target: Mast/stem cell growth factor receptor Kit (Homo sapiens) (UniProt P10721); assay: Inhibition of KIT at 5 uM
[26] = molecular target: Tyrosine-protein kinase Lck (Homo sapiens) (UniProt P06239); assay: Inhibition of LCK at 5 uM
[27] = molecular target: Dual specificity mitogen-activated protein kinase kinase 1 (Homo sapiens) (UniProt Q02750); assay: Inhibition of MAP2K1 at 5 uM
[28] = molecular target: Mitogen-activated protein kinase kinase kinase kinase 4 (Homo sapiens) (UniProt O95819); assay: Inhibition of MAP4K4 at 5 uM
[29] = molecular target: Mitogen-activated protein kinase 14 (Homo sapiens) (UniProt Q16539); assay: Inhibition of MAPK14 at 5 uM
[30] = molecular target: MAP kinase-activated protein kinase 2 (Homo sapiens) (UniProt P49137); assay: Inhibition of MAPKAPK2 at 5 uM
[31] = molecular target: Hepatocyte growth factor receptor (Homo sapiens) (UniProt P08581); assay: Inhibition of MET at 5 uM
[32] = molecular target: Platelet-derived growth factor receptor beta (Homo sapiens) (UniProt P09619); assay: Inhibition of PDGFRbeta at 5 uM
[33] = molecular target: Phosphorylase b kinase gamma catalytic chain, liver/testis isoform (Homo sapiens) (UniProt P15735); assay: Inhibition of PHKG2 at 5 uM
[34] = molecular target: Serine/threonine-protein kinase pim-1 (Homo sapiens) (UniProt P11309); assay: Inhibition of PIM1 at 5 uM
[35] = molecular target: Protein kinase C beta type (Homo sapiens) (UniProt P05771); assay: Inhibition of PRKCB1 at 5 uM
[36] = molecular target: Proto-oncogene tyrosine-protein kinase receptor Ret (Homo sapiens) (UniProt P07949); assay: Inhibition of RET at 5 uM
[37] = molecular target: Rho-associated protein kinase 1 (Homo sapiens) (UniProt Q13464); assay: Inhibition of ROCK1 at 5 uM
[38] = molecular target: Ribosomal protein S6 kinase alpha-3 (Homo sapiens) (UniProt P51812); assay: Inhibition of RPS6KA3 at 5 uM
[39] = molecular target: Aurora kinase A (Homo sapiens) (UniProt O14965); assay: Inhibition of STK6 at 5 uM
[40] = molecular target: Angiopoietin-1 receptor (Homo sapiens) (UniProt Q02763); assay: Inhibition of TEK at 5 uM
[41] = molecular target: T1, Serine/threonine-protein kinase mTOR; assay: Inhibition of PDGF-activated mTOR signaling in rat-1 fibroblasts assessed as S6K1 Thr389 site phosphorylation at 10 uM by Western blot
[42] = molecular target: T1, Serine/threonine-protein kinase mTOR; assay: Inhibition of PDGF-activated mTOR signaling in rat-1 fibroblasts assessed as Akt Ser473 site phosphorylation at 10 uM by Western blot
[43] = tested on: Fibroblast; assay: Antiproliferative activity against TSC1-deficient mouse embryo fibroblasts assessed as decrease in cell number; assay type: functional, cell-based
[44] = Inhibition of PDGFR in rat-1 cells assessed as PDGF-induced Erk phosphorylation by Western blot; assay type: cell-based
[45] = molecular target: Alpha-1A adrenergic receptor (Homo sapiens) (UniProt P35348); assay: Inhibition of phenylephrine-induced human adrenergic alpha1A receptor activity expressed in rat-1 fibroblasts assessed as S6K1 Thr389 site phosphorylation by Western blot
[46] = tested on: COS-7; assay: Inhibition of Akt T308D mutant transfected in african green monkey COS7 cells assessed as insulin-induced […] phosphorylation by Western blot; assay type: cell-based
[47] = tested on: RAC-alpha serine/threonine-protein kinase (Homo sapiens), P31749 [S473D]; assay: Inhibition of Akt S473D mutant transfected in african green monkey COS7 cells assessed as insulin-induced […] phosphorylation by Western blot; assay type: cell-based; details: COS-7
[48] = molecular target: T1, Serine/threonine-protein kinase mTOR; assay: Inhibition of IGF1-activated mTOR signaling in human M059J glioma cells assessed as S6K1 Thr389 site phosphorylation at 10 uM by Western blot; assay type: cell-based
[49] = molecular target: T1, Serine/threonine-protein kinase mTOR; assay: Inhibition of IGF1-activated mTOR signaling in human M059J glioma cells assessed as Akt Ser473 site phosphorylation at 10 uM by Western blot; assay type: cell-based
[50] = molecular target: Ribosomal protein S6 kinase beta-1 (Mus musculus) (UniProt Q8BSK8); assay: Blockade of S6K1 phosphorylation in TSC1-deficient mouse embryo fibroblasts assessed as Thr389 phosphorylation at 100 nM after 24 hrs by Western blot
[51] = molecular target: Ribosomal protein S6 kinase beta-1 (Mus musculus) (UniProt Q8BSK8); assay: Blockade of S6K1 phosphorylation in TSC1-deficient mouse embryo fibroblasts assessed as Thr389 phosphorylation at 10 uM after 24 hrs by Western blot
[52] = Antiproliferative activity against TSC1-deficient mouse embryo fibroblasts assessed as decrease in cell number at 10 uM after 1 day relative to control; assay type: functional, Fibroblast; parameters: scale not given: the % may be the effect or the level left
[53] = Antiproliferative activity against TSC1-deficient mouse embryo fibroblasts assessed as decrease in cell number at 10 uM after 2 day relative to control; assay type: functional, Fibroblast; parameters: scale not given: the % may be the effect or the level left
[54] = tested on: Fibroblast; assay: Induction of apoptosis in TSC1-deficient mouse embryo fibroblasts assessed as level of nucleosomes in cell cytoplasm at 100 nM after 24 hrs; assay type: functional, cell-based
[55] = tested on: Fibroblast; assay: Induction of apoptosis in TSC1-deficient mouse embryo fibroblasts assessed as level of nucleosomes in cell cytoplasm at 10 uM after 24 hrs; assay type: functional, cell-based
[56] = molecular target: Receptor tyrosine-protein kinase erbB-2 (Homo sapiens) (UniProt P04626); assay: Inhibition of ERBB2 at 5 uM
[57] = molecular target: Fibroblast growth factor receptor 1 (Homo sapiens) (UniProt P11362); assay: Inhibition of FGFR1 at 5 uM
[58] = molecular target: Tyrosine-protein kinase SYK (Homo sapiens) (UniProt P43405); assay: Inhibition of SYK at 5 uM
[59] = molecular target: Mitogen-activated protein kinase 3 (Homo sapiens) (UniProt P27361); assay: Inhibition of MAPK3 at 5 uM
[60] = molecular target: RAC-alpha serine/threonine-protein kinase (Mus musculus) (UniProt P31750); assay: Increase in Akt phosphorylation in TSC1-deficient mouse embryo fibroblasts assessed as Ser 473 phosphorylation at 100 nM after 24 hrs by Western blot
[61] = Antiproliferative activity against TSC1-deficient mouse embryo fibroblasts assessed as decrease in cell number at 100 nM after 2 day relative to control; assay type: functional, Fibroblast; parameters: scale not given: the % may be the effect or the level left

Chain of Ribosomal protein S6 kinase beta-1 (Mus musculus) (Q8BSK8 whole entry): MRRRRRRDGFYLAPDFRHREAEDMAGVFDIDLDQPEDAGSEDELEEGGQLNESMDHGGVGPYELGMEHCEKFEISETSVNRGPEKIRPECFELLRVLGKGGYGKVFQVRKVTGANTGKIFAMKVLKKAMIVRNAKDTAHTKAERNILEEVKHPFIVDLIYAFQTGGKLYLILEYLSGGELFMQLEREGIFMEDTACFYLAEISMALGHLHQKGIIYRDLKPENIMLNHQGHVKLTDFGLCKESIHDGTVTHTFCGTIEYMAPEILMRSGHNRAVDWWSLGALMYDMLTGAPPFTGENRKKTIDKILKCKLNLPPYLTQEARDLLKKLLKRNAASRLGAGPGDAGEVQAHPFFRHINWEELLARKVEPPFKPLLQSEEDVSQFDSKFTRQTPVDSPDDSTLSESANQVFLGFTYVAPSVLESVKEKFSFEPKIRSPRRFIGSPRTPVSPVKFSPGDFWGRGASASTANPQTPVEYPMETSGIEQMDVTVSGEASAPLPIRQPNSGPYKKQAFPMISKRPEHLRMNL
Chain of Fibroblast growth factor receptor 1 (Homo sapiens) (P11362 22-822 limits assumed): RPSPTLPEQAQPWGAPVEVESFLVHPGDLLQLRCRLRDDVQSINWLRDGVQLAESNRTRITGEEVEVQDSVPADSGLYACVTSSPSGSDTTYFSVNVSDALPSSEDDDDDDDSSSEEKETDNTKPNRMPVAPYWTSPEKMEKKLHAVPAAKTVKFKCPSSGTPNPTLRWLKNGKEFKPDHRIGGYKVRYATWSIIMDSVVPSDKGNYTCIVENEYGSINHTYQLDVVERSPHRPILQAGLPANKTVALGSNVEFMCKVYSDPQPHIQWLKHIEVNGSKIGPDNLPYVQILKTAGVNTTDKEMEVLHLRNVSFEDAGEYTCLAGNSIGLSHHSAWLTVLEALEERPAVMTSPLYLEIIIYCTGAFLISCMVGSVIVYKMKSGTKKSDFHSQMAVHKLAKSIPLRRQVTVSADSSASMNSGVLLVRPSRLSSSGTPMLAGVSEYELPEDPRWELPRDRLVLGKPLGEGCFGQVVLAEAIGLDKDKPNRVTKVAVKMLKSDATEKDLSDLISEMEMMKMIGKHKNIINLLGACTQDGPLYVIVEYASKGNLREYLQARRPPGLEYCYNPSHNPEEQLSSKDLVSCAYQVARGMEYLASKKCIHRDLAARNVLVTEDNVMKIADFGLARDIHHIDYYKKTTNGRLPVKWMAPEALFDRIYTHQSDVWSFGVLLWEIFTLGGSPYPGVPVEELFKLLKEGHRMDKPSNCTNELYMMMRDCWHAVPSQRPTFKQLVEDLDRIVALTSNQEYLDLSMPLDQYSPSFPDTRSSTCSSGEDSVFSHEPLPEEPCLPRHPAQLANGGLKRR
Chain of Casein kinase II subunit alpha (Homo sapiens) (P68400 whole entry, looked up): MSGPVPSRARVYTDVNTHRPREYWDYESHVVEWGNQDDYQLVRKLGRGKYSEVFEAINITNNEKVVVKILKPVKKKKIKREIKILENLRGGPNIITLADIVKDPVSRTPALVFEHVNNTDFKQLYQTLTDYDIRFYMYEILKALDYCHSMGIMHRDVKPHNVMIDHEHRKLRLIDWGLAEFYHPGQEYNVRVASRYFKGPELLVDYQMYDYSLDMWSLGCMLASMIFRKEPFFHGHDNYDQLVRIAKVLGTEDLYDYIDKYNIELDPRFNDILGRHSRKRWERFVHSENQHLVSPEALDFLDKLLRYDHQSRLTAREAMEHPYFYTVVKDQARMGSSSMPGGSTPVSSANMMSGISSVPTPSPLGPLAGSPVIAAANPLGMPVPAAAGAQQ
Chain of RAC-alpha serine/threonine-protein kinase (Homo sapiens), P31749 [S473D] (P31749 whole entry S473D): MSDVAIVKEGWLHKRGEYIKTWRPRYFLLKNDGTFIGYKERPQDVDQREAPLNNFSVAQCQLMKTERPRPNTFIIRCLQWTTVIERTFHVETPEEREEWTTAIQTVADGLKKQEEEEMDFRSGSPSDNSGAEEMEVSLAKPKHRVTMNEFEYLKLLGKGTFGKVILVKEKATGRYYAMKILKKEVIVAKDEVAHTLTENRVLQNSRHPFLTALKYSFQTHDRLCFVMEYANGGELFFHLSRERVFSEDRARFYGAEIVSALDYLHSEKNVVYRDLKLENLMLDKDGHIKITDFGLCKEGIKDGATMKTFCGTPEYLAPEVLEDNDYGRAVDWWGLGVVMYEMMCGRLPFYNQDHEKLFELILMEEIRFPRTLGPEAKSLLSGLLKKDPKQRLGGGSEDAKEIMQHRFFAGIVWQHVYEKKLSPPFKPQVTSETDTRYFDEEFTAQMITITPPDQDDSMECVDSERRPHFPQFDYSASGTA
Chain of Platelet-derived growth factor receptor beta (Homo sapiens) (P09619 whole entry, canonical isoform): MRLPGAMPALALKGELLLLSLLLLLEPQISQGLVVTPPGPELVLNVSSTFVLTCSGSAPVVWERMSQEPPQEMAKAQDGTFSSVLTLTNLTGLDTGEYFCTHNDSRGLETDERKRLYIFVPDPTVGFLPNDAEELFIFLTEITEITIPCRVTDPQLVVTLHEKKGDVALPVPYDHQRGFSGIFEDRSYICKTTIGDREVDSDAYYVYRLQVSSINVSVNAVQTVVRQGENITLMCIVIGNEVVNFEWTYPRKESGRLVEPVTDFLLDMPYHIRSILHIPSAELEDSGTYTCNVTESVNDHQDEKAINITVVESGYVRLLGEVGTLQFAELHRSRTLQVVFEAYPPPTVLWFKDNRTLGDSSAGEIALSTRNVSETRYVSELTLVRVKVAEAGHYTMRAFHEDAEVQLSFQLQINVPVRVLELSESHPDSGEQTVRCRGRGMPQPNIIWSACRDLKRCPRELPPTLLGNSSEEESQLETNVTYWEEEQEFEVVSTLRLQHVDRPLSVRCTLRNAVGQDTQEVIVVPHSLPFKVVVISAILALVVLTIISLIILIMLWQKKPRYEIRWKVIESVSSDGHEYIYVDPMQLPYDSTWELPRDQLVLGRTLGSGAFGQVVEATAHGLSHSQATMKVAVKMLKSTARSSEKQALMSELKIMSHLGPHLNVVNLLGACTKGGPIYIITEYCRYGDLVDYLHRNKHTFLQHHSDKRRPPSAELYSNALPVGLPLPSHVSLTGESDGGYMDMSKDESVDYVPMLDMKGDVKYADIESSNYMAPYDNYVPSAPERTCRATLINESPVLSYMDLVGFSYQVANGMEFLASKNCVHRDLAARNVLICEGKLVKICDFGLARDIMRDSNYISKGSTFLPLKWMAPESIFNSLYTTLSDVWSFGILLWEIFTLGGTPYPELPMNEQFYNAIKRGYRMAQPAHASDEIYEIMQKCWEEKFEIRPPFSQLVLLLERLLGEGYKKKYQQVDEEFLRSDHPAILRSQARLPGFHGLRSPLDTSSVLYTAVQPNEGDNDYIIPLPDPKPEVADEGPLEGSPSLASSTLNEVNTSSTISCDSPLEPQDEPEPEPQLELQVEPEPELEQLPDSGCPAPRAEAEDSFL
Chain of MAP kinase-activated protein kinase 2 (Homo sapiens) (P49137 whole entry, looked up): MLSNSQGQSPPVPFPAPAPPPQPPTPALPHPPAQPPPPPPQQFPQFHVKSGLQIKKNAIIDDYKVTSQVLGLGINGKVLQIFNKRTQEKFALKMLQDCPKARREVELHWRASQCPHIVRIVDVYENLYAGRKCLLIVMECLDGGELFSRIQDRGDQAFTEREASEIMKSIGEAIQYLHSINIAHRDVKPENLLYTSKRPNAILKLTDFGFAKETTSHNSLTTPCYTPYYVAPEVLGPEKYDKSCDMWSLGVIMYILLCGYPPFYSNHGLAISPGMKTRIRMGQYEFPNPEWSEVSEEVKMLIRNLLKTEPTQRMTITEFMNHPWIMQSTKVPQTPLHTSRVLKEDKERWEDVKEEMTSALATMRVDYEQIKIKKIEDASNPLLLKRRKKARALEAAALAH
Chain of Receptor-type tyrosine-protein kinase FLT3 (Homo sapiens) (P36888 whole entry): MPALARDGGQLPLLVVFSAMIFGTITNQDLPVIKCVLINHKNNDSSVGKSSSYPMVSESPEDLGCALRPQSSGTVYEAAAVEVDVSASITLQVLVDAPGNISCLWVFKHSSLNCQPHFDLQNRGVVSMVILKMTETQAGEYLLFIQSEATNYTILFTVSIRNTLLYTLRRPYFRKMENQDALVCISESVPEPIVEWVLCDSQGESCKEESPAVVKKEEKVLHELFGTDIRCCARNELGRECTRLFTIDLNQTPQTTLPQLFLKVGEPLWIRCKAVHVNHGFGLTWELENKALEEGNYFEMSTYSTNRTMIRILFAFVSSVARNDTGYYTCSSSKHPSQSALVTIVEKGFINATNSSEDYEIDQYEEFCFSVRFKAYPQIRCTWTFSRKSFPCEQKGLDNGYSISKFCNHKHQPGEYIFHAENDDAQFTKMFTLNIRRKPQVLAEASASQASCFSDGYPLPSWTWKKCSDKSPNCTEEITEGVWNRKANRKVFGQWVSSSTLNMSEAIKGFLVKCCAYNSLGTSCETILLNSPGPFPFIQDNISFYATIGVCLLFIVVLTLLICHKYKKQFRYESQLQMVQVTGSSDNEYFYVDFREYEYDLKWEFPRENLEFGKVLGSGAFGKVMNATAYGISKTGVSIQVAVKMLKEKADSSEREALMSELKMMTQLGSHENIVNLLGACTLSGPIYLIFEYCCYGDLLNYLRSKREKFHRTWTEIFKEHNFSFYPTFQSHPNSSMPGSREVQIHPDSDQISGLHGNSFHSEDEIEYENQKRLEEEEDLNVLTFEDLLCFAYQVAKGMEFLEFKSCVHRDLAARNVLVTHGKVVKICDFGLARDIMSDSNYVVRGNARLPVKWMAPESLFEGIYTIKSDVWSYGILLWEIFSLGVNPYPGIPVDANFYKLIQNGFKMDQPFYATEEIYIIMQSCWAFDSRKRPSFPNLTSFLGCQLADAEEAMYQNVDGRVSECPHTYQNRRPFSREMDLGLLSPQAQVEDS
Chain of RAC-alpha serine/threonine-protein kinase (Homo sapiens) (P31749 whole entry): as the sequence (P31749 whole entry S473D) above, with D473S counted along it
Chain of RAC-alpha serine/threonine-protein kinase (Mus musculus) (P31750 whole entry): as the sequence (P31749 whole entry S473D) above, with S2N, A50S, T100A, K112R, E117T, K389T, G410N, H415D, D473S counted along it

## O=c1cc(N2CCOCC2)oc2c(-c3ccccc3)cccc12 [LY-294002]
[1]
  IC50: 5 µM
[2]
  Activity: Active
[3]
  Activity: Active

## O=C(c1ccccc1)c1ccc(N2CCOCC2)cc1O
[1]
  IC50: > 100 µM
[4]
  IC50: 0.27 µM

## O=c1cc(N2CCOCC2)nc2c3ccccc3ccn12
[5]
  inhibition: 3%
[6]
  IC50: > 100 µM
[7]
  inhibition: 67%
[8]
  inhibition: 78%
[9]
  Activity: inactive
[10]
  inhibition: -5%
[11]
  inhibition: 5%
[12]
  inhibition: 9%
[13]
  inhibition: 3%
[14]
  inhibition: -9%
[15]
  inhibition: 2%
[16]
  inhibition: 5%
[17]
  inhibition: -3%
[18]
  inhibition: 36%
[19]
  inhibition: 0%
[20]
  inhibition: -8%
[21]
  inhibition: -3%
[22]
  inhibition: -5%
[23]
  inhibition: 2%
[24]
  inhibition: 0%
[25]
  inhibition: 13%
[26]
  inhibition: -3%
[27]
  inhibition: -8%
[28]
  inhibition: 3%
[29]
  inhibition: 17%
[30]
  inhibition: 40%
[31]
  inhibition: 19%
[32]
  inhibition: -4%
[33]
  inhibition: -6%
[34]
  inhibition: 44%
[35]
  inhibition: 8%
[36]
  inhibition: -4%
[37]
  inhibition: 13%
[38]
  inhibition: 7%
[39]
  inhibition: 44%
[40]
  inhibition: 12%
[41]
  Activity: Active
[42]
  Activity: Active
[43]
  Activity: Dose-dependent effect
[44]
  Activity: inactive
[45]
  Activity: Active
[46]
  Activity: inactive
[47]
  Activity: Active
[48]
  Activity: Active
[49]
  Activity: Active
[50]
  Activity: Active
[51]
  Activity: Active
[52]
  Activity: 54%
[53]
  Activity: 84%
[54]
  Activity: inactive
[55]
  Activity: Active
[56]
  inhibition: 3%
[57]
  inhibition: 0%
[58]
  inhibition: 14%
[59]
  inhibition: -3%

## CO[C@H]1C[C@@H]2CC[C@@H](C)[C@@](O)(O2)C(=O)C(=O)N2CCCC[C@H]2C(=O)O[C@H]([C@H](C)C[C@@H]2CC[C@@H](O)[C@H](OC)C2)CC(=O)[C@H](C)/C=C(\C)[C@@H](O)[C@@H](OC)C(=O)[C@H](C)C[C@H](C)/C=C/C=C/C=C/1C [SIROLIMUS]
[60]
  Activity: Active
[61]
  Activity: 57%
